The values below come from patent US20050089470A1, “Labeled peptides for lectin-like oxidized low-density lipoprotein receptor (LOX-1)” (priority 2003, published 2005).

Ends that are not written are not given here. Fl = fluorescein

The test deals with human coronary artery endothelial cells (HCAE). In words: Binding of fluorescein-labeled ligands to HCAE cells, imaged by laser confocal fluorescence microscopy. The format is cell-based. The following applies: HCAE cells known to express LOX-1; about 10 μL of 1 mg/ml labeled ligand, incubated 1 hour, washed three times. The procedure:
Images in the assay may be acquired using a laser confocal microscope or an Imager. For example, images of peptides bound to cells can be obtained using a laser confocal microscope as follows: HCAE cells can be grown on high quality borosilicate 8-chambered glass slides (Electron Microscopy Sciences, Fort Washington, Pa.). Then, about 10 μL of 1 mg/ml of an aqueous solution of a labeled peptide can be added to the cells and incubated for 1 hour. Subsequently, the cells preferably are washed with HBSS buffer three times. The cells then can be fixed with 4% formaldehyde solution over 10 minutes. After a final wash with buffer, the slide is imaged. Images preferably are acquired using an OLYMPUS laser scanning confocal microscope, model Fluoview 300, using Ar-ion laser (selecting 488 nm line) and a 510-nm long-pass filter. Images can be acquired using two channels: reflected light and fluorescent mode channel, or an overlay of both channels.
The experimental conditions for imaging the peptide-labeled HCAECs are described previously.
The image was obtained using a laser confocal microscope as follows: HCAE cells were laid on and grown in wells on a standard commercial 96-well plate (Becton-Dickenson, Franklin Lakes, N.J.). Then, about 10 μL of 1 mg/ml labeled antibody aqueous solution was added to the cells and incubated for 1 hour. […]

For the substance “Fl-KGKG-QPLFTPQ (Fl-KGKGQPLFTPQ) [comparative peptide]”, the “binding / localization on HCAECs (fluorescent confocal image)” value is recorded as “weaker binding affinity”.
The entry for Fl-KKGG-FQTPPQL (Fl-KKGGFQTPPQL) is “localized on the cells”.
